Reference: ChEMBL document CHEMBL4011612, “4-Anilino-pyrimidine, novel aldosterone synthase (CYP11B2) inhibitors bearing pyrimidine structures” (Bioorg Med Chem Lett, 2017)
≈ marks a conversion by molar mass, not a printed value.

Tested on: not listed separately
Assay: Solubility of the compound at pH 1.2
Assay type: physicochemical
Conditions: buffer

Q: For `CS(=O)(=O)N1CCC(C(O)(c2cncnc2Nc2ccc(F)cc2)C(F)(F)F)CC1` (racemic), which solubility is on record?
A: 860 µg/mL (≈ 1920 µM)

Target: T1, CYP19 (aromatase) (Homo sapiens, UniProt P11511)
T1 sequence (P11511 whole entry): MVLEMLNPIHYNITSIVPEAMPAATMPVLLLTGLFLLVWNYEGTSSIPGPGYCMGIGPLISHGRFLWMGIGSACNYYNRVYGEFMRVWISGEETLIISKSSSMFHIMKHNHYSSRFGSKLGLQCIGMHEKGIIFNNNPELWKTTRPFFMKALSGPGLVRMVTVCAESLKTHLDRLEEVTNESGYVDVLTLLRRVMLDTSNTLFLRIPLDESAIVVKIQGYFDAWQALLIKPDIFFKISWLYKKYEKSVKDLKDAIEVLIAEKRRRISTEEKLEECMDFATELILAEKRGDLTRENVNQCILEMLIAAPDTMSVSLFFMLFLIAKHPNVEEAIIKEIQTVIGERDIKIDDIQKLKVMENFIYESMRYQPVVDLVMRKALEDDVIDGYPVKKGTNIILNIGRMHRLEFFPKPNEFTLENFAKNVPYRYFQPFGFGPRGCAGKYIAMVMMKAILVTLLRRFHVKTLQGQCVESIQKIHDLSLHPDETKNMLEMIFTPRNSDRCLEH
Assay: Inhibition of CYP19 (unknown origin) at 1 uM
Conditions: not given

Q: Which inhibition at 1 µM does the source give for `CS(=O)(=O)N1CCC(C(O)(c2cncnc2Nc2ccc(F)cc2)C(F)(F)F)CC1` (racemic) here?
A: 16%

Tested on: not listed separately
Assay: Plasma protein binding in mouse
Assay type: ADME, cell-free
Conditions: read-out: PPB (converted)

Q: With `CS(=O)(=O)N1CCC(C(O)(c2cncnc2Nc2ccc(F)cc2)C(F)(F)F)CC1` (racemic) as the compound, how does the fraction unbound read?
A: 0.185

Tested on: not listed separately
Assay: Tmax in cynomolgus monkey at 3 mg/kg, po administered as single dose
Assay type: ADME, organism-based, Macaca fascicularis
Conditions: in vivo

Q: For `CS(=O)(=O)N1CCC(C(O)(c2cncnc2Nc2ccc(F)cc2)C(F)(F)F)CC1` (racemic), which Tmax is on record?
A: 2.67 h

Tested on: not listed separately
Assay: Solubility of the compound at pH 6.8
Assay type: physicochemical
Conditions: buffer

Q: Which solubility does the source give for `CS(=O)(=O)N1CCC(C(O)(c2cncnc2Nc2ccc(F)cc2)C(F)(F)F)CC1` (racemic) here?
A: 260 µg/mL (≈ 580 µM)

Tested on: not listed separately
Assay: Half life in cynomolgus monkey at 3 mg/kg, po administered as single dose
Assay type: ADME, organism-based, Macaca fascicularis
Conditions: in vivo

Q: For `CS(=O)(=O)N1CCC(C(O)(c2cncnc2Nc2ccc(F)cc2)C(F)(F)F)CC1` (racemic), which half-life is on record?
A: 2.31 h

Tested on: not listed separately
Assay: Cmax in cynomolgus monkey at 3 mg/kg, po administered as single dose
Assay type: ADME, organism-based, Macaca fascicularis
Set-up: dose 3 mg/kg, route oral
Conditions: in vivo

Q: Which Cmax does the source give for `CS(=O)(=O)N1CCC(C(O)(c2cncnc2Nc2ccc(F)cc2)C(F)(F)F)CC1` (racemic) here?
A: 515 ng/mL

Target: CYP3A4 (Homo sapiens, UniProt P08684)
Sequence (P08684 whole entry): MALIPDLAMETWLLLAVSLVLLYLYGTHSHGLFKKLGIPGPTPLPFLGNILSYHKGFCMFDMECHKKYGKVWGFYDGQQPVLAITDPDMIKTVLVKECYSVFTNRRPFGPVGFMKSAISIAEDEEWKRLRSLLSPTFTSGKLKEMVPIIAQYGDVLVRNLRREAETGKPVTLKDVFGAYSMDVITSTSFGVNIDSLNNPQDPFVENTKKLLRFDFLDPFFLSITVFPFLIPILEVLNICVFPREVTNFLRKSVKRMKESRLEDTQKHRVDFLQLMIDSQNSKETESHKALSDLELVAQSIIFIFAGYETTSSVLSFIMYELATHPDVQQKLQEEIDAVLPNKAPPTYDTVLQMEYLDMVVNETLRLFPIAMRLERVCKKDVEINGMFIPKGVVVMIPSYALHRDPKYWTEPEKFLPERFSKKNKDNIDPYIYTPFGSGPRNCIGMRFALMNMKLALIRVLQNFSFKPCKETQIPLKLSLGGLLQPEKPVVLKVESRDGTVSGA
Assay: Inhibition of CYP3A4 (unknown origin) at 10 uM
Conditions: not given

Q: With `CS(=O)(=O)N1CCC(C(O)(c2cncnc2Nc2ccc(F)cc2)C(F)(F)F)CC1` (racemic) as the compound, how does the inhibition at 10 µM read?
A: 4.1%

Target: T2, Cytochrome P450 11B2, mitochondrial (Mus musculus, UniProt P15539)
T2 sequence (P15539 whole entry): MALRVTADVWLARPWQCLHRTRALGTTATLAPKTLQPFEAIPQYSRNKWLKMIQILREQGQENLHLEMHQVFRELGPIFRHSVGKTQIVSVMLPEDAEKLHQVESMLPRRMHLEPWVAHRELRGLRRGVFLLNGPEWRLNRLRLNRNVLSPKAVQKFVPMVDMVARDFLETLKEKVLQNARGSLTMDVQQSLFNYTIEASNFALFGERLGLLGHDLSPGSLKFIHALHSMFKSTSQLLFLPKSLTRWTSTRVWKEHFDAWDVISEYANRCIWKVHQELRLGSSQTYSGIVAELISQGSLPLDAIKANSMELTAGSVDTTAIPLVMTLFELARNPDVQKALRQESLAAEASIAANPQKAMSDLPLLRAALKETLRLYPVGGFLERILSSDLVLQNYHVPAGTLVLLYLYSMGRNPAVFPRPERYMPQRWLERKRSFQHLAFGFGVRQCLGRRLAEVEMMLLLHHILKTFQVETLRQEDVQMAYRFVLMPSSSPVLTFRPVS
Conditions: not given

Q: With `OC(c1cncnc1Nc1ccc(F)cc1)C1CCNCC1` (racemic) as the compound, how does the IC50 read?
A: 1310 nM

Q: Which IC50 does the source give for `CC(O)(c1cncnc1Nc1ccc(F)cc1)C1CCN(S(C)(=O)=O)CC1` (racemic) here?
A: 102 nM

Q: For `COc1ccc(Nc2ncncc2C(O)C2CCN(S(C)(=O)=O)CC2)cc1` (racemic), which IC50 is on record?
A: > 10000 nM

Q: With `CS(=O)(=O)N1CCC(C(O)c2cncnc2Nc2cccc3ccccc23)CC1` (racemic) as the compound, how does the IC50 read?
A: 2740 nM

Q: For `CS(=O)(=O)N1CCC(C(O)c2cncnc2Nc2cccc(F)c2)CC1` (racemic), which IC50 is on record?
A: 1100 nM

Q: For `CS(=O)(=O)N1CCC(C(O)(c2cncnc2Nc2ccc(F)cc2)C(F)(F)F)CC1` (racemic), which IC50 is on record?
A: 10 nM

Target: CYP2C9 (Homo sapiens, UniProt P11712)
Sequence (P11712 whole entry): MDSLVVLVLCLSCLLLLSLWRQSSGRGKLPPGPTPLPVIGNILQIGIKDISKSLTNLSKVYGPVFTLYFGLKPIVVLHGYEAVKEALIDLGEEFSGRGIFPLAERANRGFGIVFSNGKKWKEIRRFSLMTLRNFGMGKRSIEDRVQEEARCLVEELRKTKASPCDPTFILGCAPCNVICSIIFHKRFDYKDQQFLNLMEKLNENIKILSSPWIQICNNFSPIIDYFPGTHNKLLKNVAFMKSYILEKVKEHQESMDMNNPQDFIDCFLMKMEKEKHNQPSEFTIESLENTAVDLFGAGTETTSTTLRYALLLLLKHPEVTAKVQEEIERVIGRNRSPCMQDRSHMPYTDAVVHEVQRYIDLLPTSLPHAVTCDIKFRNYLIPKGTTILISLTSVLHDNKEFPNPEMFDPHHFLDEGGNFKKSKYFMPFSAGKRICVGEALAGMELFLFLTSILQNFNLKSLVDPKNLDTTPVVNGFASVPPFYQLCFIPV
Assay: Inhibition of CYP2C9 (unknown origin) at 10 uM
Assay type: ADME
Conditions: not given

Q: With `CS(=O)(=O)N1CCC(C(O)(c2cncnc2Nc2ccc(F)cc2)C(F)(F)F)CC1` (racemic) as the compound, how does the inhibition at 10 µM read?
A: 3.4%

Target: T3, CYP1A2 (Homo sapiens, UniProt P05177)
T3 sequence (P05177 whole entry): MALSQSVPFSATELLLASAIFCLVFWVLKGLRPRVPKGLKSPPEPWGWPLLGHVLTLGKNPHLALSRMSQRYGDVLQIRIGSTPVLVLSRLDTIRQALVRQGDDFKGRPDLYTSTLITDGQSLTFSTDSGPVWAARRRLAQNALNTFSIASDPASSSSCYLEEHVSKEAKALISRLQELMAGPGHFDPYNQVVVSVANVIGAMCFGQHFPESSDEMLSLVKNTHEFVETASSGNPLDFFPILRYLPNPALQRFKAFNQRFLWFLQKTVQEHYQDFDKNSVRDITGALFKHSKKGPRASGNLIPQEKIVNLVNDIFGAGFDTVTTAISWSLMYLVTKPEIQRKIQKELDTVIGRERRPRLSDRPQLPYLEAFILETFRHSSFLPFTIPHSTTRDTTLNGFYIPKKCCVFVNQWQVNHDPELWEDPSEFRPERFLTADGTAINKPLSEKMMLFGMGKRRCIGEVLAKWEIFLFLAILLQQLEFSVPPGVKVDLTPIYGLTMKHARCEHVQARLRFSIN
Assay: Inhibition of CYP1A2 (unknown origin) at 10 uM
Assay type: ADME
Conditions: not given

Q: With `CS(=O)(=O)N1CCC(C(O)(c2cncnc2Nc2ccc(F)cc2)C(F)(F)F)CC1` (racemic) as the compound, how does the inhibition at 10 µM read?
A: < 0%

Target: CYP2D6 (Homo sapiens, UniProt P10635)
Sequence (P10635 whole entry): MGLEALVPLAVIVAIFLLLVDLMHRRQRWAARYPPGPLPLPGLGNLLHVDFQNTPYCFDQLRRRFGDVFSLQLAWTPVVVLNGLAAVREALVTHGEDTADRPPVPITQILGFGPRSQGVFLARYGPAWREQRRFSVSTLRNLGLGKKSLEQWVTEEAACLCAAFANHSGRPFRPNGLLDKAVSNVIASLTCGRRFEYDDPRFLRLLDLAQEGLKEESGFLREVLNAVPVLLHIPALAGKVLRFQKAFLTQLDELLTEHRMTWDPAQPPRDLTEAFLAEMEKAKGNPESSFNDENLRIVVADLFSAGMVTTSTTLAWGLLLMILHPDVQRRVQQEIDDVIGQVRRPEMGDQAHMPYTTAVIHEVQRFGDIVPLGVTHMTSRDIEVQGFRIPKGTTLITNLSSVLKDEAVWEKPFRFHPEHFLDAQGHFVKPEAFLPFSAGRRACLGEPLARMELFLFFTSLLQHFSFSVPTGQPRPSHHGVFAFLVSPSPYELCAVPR
Assay: Inhibition of CYP2D6 (unknown origin) at 10 uM
Assay type: ADME
Conditions: not given

Q: Which inhibition at 10 µM does the source give for `CS(=O)(=O)N1CCC(C(O)(c2cncnc2Nc2ccc(F)cc2)C(F)(F)F)CC1` (racemic) here?
A: 5.8%

Tested on: Liver
Assay: Metabolic stability in human liver microsomes
Assay type: ADME, microsome
Conditions: not given

Q: Which Stability does the source give for `CS(=O)(=O)N1CCC(C(O)(c2cncnc2Nc2ccc(F)cc2)C(F)(F)F)CC1` (racemic) here?
A: 100%

Tested on: not listed separately
Assay: Total AUC in cynomolgus monkey at 3 mg/kg, po administered as single dose
Assay type: ADME, organism-based, Macaca fascicularis
Set-up: dose 3 mg/kg, time AUCmax, route oral
Conditions: in vivo

Q: For `CS(=O)(=O)N1CCC(C(O)(c2cncnc2Nc2ccc(F)cc2)C(F)(F)F)CC1` (racemic), which AUC is on record?
A: 3300 ng·h/mL

Target: T4, Cytochrome P450 11B2, mitochondrial (Homo sapiens, UniProt P19099)
T4 sequence (P19099 whole entry): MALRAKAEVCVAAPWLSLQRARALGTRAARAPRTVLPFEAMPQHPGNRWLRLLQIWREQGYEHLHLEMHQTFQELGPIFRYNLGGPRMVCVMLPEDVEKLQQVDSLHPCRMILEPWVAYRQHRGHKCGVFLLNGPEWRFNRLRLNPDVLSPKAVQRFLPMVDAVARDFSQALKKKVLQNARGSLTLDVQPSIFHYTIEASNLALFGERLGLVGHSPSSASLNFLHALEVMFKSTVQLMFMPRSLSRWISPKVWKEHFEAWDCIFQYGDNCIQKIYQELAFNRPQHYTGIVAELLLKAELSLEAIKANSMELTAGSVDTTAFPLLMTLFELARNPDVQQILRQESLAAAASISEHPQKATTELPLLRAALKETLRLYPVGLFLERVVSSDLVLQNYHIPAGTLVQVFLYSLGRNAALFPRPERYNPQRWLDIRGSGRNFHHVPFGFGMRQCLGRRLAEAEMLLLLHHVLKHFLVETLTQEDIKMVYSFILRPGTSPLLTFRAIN
Conditions: not given

Q: Which IC50 does the source give for `OC(c1cncnc1Nc1ccc(F)cc1)C1CCNCC1` (racemic) here?
A: 300 nM

Q: With `CC(O)(c1cncnc1Nc1ccc(F)cc1)C1CCN(S(C)(=O)=O)CC1` (racemic) as the compound, how does the IC50 read?
A: 2 nM

Q: With `COc1ccc(Nc2ncncc2C(O)C2CCN(S(C)(=O)=O)CC2)cc1` (racemic) as the compound, how does the IC50 read?
A: 14 nM

Q: With `CS(=O)(=O)N1CCC(C(O)c2cncnc2Nc2cccc3ccccc23)CC1` (racemic) as the compound, how does the IC50 read?
A: 8 nM

Q: With `CS(=O)(=O)N1CCC(C(O)c2cncnc2Nc2cccc(F)c2)CC1` (racemic) as the compound, how does the IC50 read?
A: 5 nM

Q: For `CS(=O)(=O)N1CCC(C(O)(c2cncnc2Nc2ccc(F)cc2)C(F)(F)F)CC1` (racemic), which IC50 is on record?
A: 4 nM

Target: T5, Cytochrome P450 11B1, mitochondrial (Homo sapiens, UniProt P15538)
T5 sequence (P15538 whole entry): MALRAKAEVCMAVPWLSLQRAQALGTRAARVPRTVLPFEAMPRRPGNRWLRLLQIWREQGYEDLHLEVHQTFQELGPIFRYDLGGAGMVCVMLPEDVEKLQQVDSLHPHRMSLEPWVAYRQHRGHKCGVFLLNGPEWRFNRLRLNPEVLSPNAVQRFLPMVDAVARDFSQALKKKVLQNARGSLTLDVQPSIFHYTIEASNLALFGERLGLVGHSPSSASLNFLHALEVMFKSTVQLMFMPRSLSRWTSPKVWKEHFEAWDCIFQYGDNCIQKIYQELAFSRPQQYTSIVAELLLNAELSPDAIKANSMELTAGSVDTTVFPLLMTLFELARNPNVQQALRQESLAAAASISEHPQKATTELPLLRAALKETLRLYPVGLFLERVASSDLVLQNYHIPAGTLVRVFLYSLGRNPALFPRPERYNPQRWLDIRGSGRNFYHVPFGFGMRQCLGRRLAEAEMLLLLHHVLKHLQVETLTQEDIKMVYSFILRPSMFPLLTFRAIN
Assay: Inhibition of human CYP11B1 expressed in HEK293A cells
Assay type: ADME, cell-based, HEK293
Conditions: not given

Q: Which IC50 does the source give for `CC(O)(c1cncnc1Nc1ccc(F)cc1)C1CCN(S(C)(=O)=O)CC1` (racemic) here?
A: 6 nM

Q: With `CS(=O)(=O)N1CCC(C(O)c2cncnc2Nc2cccc3ccccc23)CC1` (racemic) as the compound, how does the IC50 read?
A: 110 nM

Q: With `CS(=O)(=O)N1CCC(C(O)c2cncnc2Nc2cccc(F)c2)CC1` (racemic) as the compound, how does the IC50 read?
A: 13 nM

Q: With `CS(=O)(=O)N1CCC(C(O)(c2cncnc2Nc2ccc(F)cc2)C(F)(F)F)CC1` (racemic) as the compound, how does the IC50 read?
A: 2 nM
